Earlier results on 15 compounds are cited in paper PMC4411882, “Developmental Potential for Endomorphin Opioidmimetic Drugs” (International Journal of Medicinal Chemistry, 2012).

Where two headings read alike, the source gives them in different places.

In general, IC50 refers to the concentration needed to halve the response being measured.

In data set [1] the target is T1, δ-opioid receptor (Rattus norvegicus, UniProt P33533). More on the design: gene Oprd1. Particulars: read-out: Kiδ.
Data set [2] has as its target T2, μ-opioid receptor (Rattus norvegicus, UniProt P33535). More on the design: gene Oprm1. Particulars: read-out: Kiμ.
Another data set addresses T3, δ-opioid receptor (MVD) (Mus musculus, UniProt P32300).
T3 construct: gene Oprd1; mouse vas deferens (MVD) bioassay
More on the design: species or system mouse vas deferens. An excerpt:
(§1) Therefore, we substituted hydrophobic groups in lieu of the phenethyl group to develop the class of H-Dmt-Pro-Phe-NH-X ligands (Figure 1).

The target in data set [3] is T2, μ-opioid receptor. Also noted: gene Oprm1; rat brain P2 synaptosomal preparations; species or system rat brain P2 synaptosomal preparations. Particulars: read-out: Kiμ.
The target of another data set is T4, μ-opioid receptor (GPI) (Cavia porcellus, UniProt P97266).
T4 construct: gene OPRM1; guinea pig ileum (GPI) bioassay
Also noted: species or system guinea pig ileum.
Source text: as §1

In data set [4] the target is T1, δ-opioid receptor. Also noted: gene Oprd1; rat brain P2 synaptosomal preparations; species or system rat brain P2 synaptosomal preparations. Particulars: read-out: Kiδ.

T2 sequence (P33535 whole entry): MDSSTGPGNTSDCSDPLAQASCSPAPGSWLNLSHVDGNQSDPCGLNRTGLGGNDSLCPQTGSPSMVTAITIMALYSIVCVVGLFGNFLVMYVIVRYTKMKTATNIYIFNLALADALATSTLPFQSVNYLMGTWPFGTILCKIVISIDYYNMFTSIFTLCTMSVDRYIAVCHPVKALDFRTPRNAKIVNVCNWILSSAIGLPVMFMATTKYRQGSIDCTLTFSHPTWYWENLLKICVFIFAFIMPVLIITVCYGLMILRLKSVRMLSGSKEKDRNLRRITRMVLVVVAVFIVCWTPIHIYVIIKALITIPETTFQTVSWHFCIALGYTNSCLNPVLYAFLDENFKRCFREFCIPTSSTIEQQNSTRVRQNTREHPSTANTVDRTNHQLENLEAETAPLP
T1 sequence (P33533 whole entry): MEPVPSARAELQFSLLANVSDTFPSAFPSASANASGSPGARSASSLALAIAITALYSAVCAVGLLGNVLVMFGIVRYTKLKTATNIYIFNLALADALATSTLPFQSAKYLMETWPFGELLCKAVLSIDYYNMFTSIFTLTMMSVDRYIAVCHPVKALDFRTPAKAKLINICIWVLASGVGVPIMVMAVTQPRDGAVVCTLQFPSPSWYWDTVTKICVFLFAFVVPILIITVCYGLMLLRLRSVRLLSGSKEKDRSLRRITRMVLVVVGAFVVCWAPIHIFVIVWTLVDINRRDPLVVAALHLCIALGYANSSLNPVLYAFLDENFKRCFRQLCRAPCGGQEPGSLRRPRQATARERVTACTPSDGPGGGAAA
T3 sequence (P32300 whole entry): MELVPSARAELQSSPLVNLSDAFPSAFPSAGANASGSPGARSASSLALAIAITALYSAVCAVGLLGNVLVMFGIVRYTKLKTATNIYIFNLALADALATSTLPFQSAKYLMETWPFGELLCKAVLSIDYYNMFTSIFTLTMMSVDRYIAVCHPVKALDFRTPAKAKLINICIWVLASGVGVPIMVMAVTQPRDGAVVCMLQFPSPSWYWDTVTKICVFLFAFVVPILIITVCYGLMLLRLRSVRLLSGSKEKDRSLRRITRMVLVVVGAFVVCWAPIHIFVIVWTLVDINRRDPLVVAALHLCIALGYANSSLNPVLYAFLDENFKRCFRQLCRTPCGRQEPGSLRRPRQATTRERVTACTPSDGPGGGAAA
T4 sequence (P97266 whole entry): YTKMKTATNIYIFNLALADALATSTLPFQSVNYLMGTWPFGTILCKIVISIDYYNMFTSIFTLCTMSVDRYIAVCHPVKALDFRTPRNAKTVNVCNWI

As for `CNC(=O)C(N)Cc1c(C)cc(O)cc1C` (stereo not shown) [H-Dmt-NH-CH3], the Ki on δ-opioid receptor [1] is 460 nM; at μ-opioid receptor [2] it was 7.45 nM.

For the compound `Cc1cc(O)cc(C)c1CC(N)C(=O)N1Cc2ccccc2CC1C(=O)NCCCc1[nH]c(=O)c(CCCNC(=O)C2Cc3ccccc3CN2C(=O)C(N)Cc2c(C)cc(O)cc2C)nc1C` (stereo not drawn) [compound 61, 3,6-bis[Dmt-Tic-NH(CH2)3]-5-methyl-2(1H)-pyrazinone], the IC50 on δ-opioid receptor (MVD) is more than 10000 nM; on μ-opioid receptor (GPI), 7020 nM. For the same compound, the Ki at μ-opioid receptor [3] was 3.08 nM; on δ-opioid receptor [4], 0.155 nM.

On to `Cc1cc(O)cc(C)c1CC(N)C(=O)N1Cc2ccccc2CC1C(=O)NCCCCc1[nH]c(=O)c(CCCCNC(=O)C2Cc3ccccc3CN2C(=O)C(N)Cc2c(C)cc(O)cc2C)nc1C` (stereo not drawn) [compound 62, 3,6-bis[Dmt-Tic-NH(CH2)4]-5-methyl-2(1H)-pyrazinone], for which the IC50 at δ-opioid receptor (MVD) and on μ-opioid receptor (GPI) was more than 10000 nM each time. The Ki was 1.74 nM at μ-opioid receptor [3] and 0.323 nM at δ-opioid receptor [4].

On to `Cc1cc(O)cc(C)c1CC(N)C(=O)N1Cc2ccccc2CC1C(=O)NCCCCc1[nH]c(=O)c(CCCNC(=O)C2Cc3ccccc3CN2C(=O)C(N)Cc2c(C)cc(O)cc2C)nc1C` (stereo not drawn) [compound 63, 3-[Dmt-Tic-NH(CH2)3]-6-[Dmt-Tic-NH(CH2)4]-5-methyl-2(1H)-pyrazinone], for which the 50% inhibitory concentration (IC50) on δ-opioid receptor (MVD) and at μ-opioid receptor (GPI) was more than 10000 nM throughout. Moreover, the results for the Ki on μ-opioid receptor [3] and at δ-opioid receptor [4] were 1.56 nM and 0.16 nM, respectively.

As for `Cc1cc(O)cc(C)c1CC(N)C(=O)N1Cc2ccccc2CC1C(=O)NCCCCc1nc(C)c(CCCNC(=O)C2Cc3ccccc3CN2C(=O)C(N)Cc2c(C)cc(O)cc2C)[nH]c1=O` (stereo not drawn) [compound 64, 3-[Dmt-Tic-NH(CH2)4]-6-[Dmt-Tic-NH(CH2)3]-5-methyl-2(1H)-pyrazinone], the IC50 at δ-opioid receptor (MVD) and at μ-opioid receptor (GPI) was more than 10000 nM throughout. In addition, the results for the Ki at μ-opioid receptor [3] and on δ-opioid receptor [4] were 2.28 nM and 0.092 nM, respectively.

On to `Cc1cc(O)cc(C)c1CC(N)C(=O)N1Cc2ccccc2CC1C(=O)NCCCCc1[nH]c(=O)c(CCNC(=O)C2Cc3ccccc3CN2C(=O)C(N)Cc2c(C)cc(O)cc2C)nc1C` (stereo not drawn) [compound 65, 3-[Dmt-Tic-NH(CH2)2]-6-[Dmt-Tic-NH(CH2)4]-5-methyl-2(1H)-pyrazinone], for which the 50% inhibitory concentration (IC50) at δ-opioid receptor (MVD) and at μ-opioid receptor (GPI) was more than 10000 nM each time. The Ki was 1.37 nM at μ-opioid receptor [3] and 0.107 nM at δ-opioid receptor [4].

On to `Cc1cc(O)cc(C)c1C[C@H](N)C(=O)N1Cc2ccccc2C[C@H]1C(=O)NCCCCNC(=O)[C@@H]1Cc2ccccc2CN1C(=O)[C@@H](N)Cc1c(C)cc(O)cc1C` [compound 66, bis[Dmt-Tic-NH]butane], for which the 50% inhibitory concentration (IC50) at δ-opioid receptor (MVD) and on μ-opioid receptor (GPI) was more than 10000 nM throughout. Further, the Ki is 5.72 nM at μ-opioid receptor [3] and 0.124 nM on δ-opioid receptor [4].

As to `Cc1cc(O)cc(C)c1C[C@H](N)C(=O)N1Cc2ccccc2C[C@H]1C(=O)NCCCCCCCCCCNC(=O)[C@@H]1Cc2ccccc2CN1C(=O)[C@@H](N)Cc1c(C)cc(O)cc1C` [compound 68, bis[Dmt-Tic-NH]decane], the figures for the IC50 on δ-opioid receptor (MVD) and on μ-opioid receptor (GPI) were more than 10000 nM and 5420 nM, respectively. In addition, the Ki at μ-opioid receptor [3] is 4.86 nM; on δ-opioid receptor [4] it was 1.53 nM.

In the case of `Cc1cc(O)cc(C)c1CC(C(=O)N1Cc2ccccc2CC1C(=O)NCCCCCCNC(=O)C1Cc2ccccc2CN1C(=O)C(Cc1c(C)cc(O)cc1C)N(C)C)N(C)C` (stereo not drawn) [compound 69, bis[N,N-dimethyl-Dmt-Tic-NH]hexane], the half-inhibitory concentration (IC50) on δ-opioid receptor (MVD) and on μ-opioid receptor (GPI) was more than 10000 nM each time. The Ki is 2.21 nM on μ-opioid receptor [3] and 0.06 nM on δ-opioid receptor [4].

Regarding `Cc1cc(O)cc(C)c1CC(C(=O)N1Cc2ccccc2CC1C(=O)NCCCc1[nH]c(=O)c(CCCNC(=O)C2Cc3ccccc3CN2C(=O)C(Cc2c(C)cc(O)cc2C)N(C)C)nc1C)N(C)C` (stereo not drawn) [compound 70, 3,6-bis[N,N-dimethyl-Dmt-Tic-NH-propyl]-5-methyl-2(1H)-pyrazinone], the IC50 at δ-opioid receptor (MVD) and on μ-opioid receptor (GPI) was more than 10000 nM each time. Further, the values for the Ki at μ-opioid receptor [3] and at δ-opioid receptor [4] were 1.68 nM and 0.287 nM, respectively.

For the compound H-Dit-Pro-Phe-Phe-NH2 [compound 38], the results for the IC50 at δ-opioid receptor (MVD) and on μ-opioid receptor (GPI) were more than 10000 nM and 299 nM, respectively. The Ki on μ-opioid receptor [3] was 2.29 nM; at δ-opioid receptor [4] it was 105 nM.

As to H-Dmt-Pro-Mmp-Phe-NH2 [compound 40], the concentration for half-maximal inhibition (IC50) at δ-opioid receptor (MVD) was more than 10000 nM; on μ-opioid receptor (GPI), 0.16 nM. The Ki at μ-opioid receptor [3] was 0.18 nM; at δ-opioid receptor [4] it was 4.61 nM.

Take H-Dmt-Pro-Tmp-Phe-NH2 [compound 44]: the values for the IC50 at δ-opioid receptor (MVD) and at μ-opioid receptor (GPI) were more than 10000 nM and 0.21 nM, respectively. Moreover, the results for the Ki at μ-opioid receptor [3] and on δ-opioid receptor [4] were 0.18 nM and 1.83 nM, respectively.

For the compound H-Mmt-Pro-Phe-Phe-NH2 [compound 34], the half-inhibitory concentration (IC50) is 28.7 nM at δ-opioid receptor (MVD) and 0.924 nM at μ-opioid receptor (GPI). In addition, the figures for the Ki on μ-opioid receptor [3] and at δ-opioid receptor [4] were 0.132 nM and 529 nM, respectively.

Regarding H-Tmt-Pro-Phe-Phe-NH2 [compound 39], the 50% inhibitory concentration (IC50) at δ-opioid receptor (MVD) was 46.4 nM; at μ-opioid receptor (GPI) it was 2.31 nM. The Ki at μ-opioid receptor [3] is 0.111 nM; on δ-opioid receptor [4] it was 594 nM.
